Each structure is given as a SMILES string.

By IC50 is commonly meant the midpoint of a concentration-inhibition curve.

For the test, the target named is Recombinant human JAK1 catalytic domain (Homo sapiens (Human), UniProt P23458). As to the kind of experiment: JAK1 inhibition assay. The class given is biochemical. Conditions: semi-quantitative score. As to the method: Plates were washed 6 times with 300 μL per well of a 75 mM phosphoric acid solution and the bottom of the plates was sealed. 40 μL/well of Microscint-20 was added, the top of the plates was sealed and readout was performed using the Topcount (Perkin Elmer). Kinase activity was calculated by subtracting counts per minute (cpm) obtained in the presence of a positive control inhibitor (10 μM staurosporine) from cpm obtained in the presence of vehicle. The ability of a test compound to inhibit this activity was determined as: Percentage inhibition=((cpm determined for sample with test compound present−cpm determined for sample with positive control inhibitor) divided by (cpm determined in the presence of vehicle−cpm determined for sample with positive control inhibitor))*100%.
Sequence of Recombinant human JAK1 catalytic domain (P23458 850-1154): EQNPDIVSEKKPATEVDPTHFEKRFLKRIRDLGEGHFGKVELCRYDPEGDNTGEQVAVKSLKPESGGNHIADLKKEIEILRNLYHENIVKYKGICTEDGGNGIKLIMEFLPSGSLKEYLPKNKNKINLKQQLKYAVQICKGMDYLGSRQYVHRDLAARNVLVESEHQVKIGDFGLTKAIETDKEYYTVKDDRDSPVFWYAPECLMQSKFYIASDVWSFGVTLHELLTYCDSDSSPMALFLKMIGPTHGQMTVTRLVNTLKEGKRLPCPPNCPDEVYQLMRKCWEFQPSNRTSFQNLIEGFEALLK
Dose dilution series were prepared for the compounds enabling the testing of dose-response effects in the JAK1 assay and the calculation of the IC50 for each compound.
In the case of `O=C(Nc1nc2cccc(-c3cccc(CN4CCOCC4)c3)n2n1)C1CC1` [Compound 2, N-(5-(3-(morpholinomethyl)phenyl)-[1,2,4]triazolo[1,5-a]pyridin-2-yl)cyclopropanecarboxamide], the IC50 lay within 101 to 500 nM.

Turning to `O=C(Nc1nc2cccc(-c3cnc(N4CCCC4)nc3)n2n1)C1CC1` [Compound 4, N-(5-(2-(pyrrolidin-1-yl)pyrimidin-5-yl)-[1,2,4]triazolo[1,5-a]pyridin-2-yl)cyclopropanecarboxamide], the IC50 lay within 501 to 1000 nM.

As for `CN1CCN(c2ccc(-c3cccc4nc(NC(=O)C5CC5)nn34)cn2)CC1` [Compound 5, N-(5-(6-(4-methylpiperazin-1-yl)pyridin-3-yl)-[1,2,4]triazolo[1,5-a]pyridin-2-yl)cyclopropanecarboxamide], the IC50 was over 1000 nM.

As for `O=C(Nc1nc2cccc(-c3ccc(N4CCOCC4)nc3)n2n1)C1CC1` [Compound 6, N-(5-(6-morpholinopyridin-3-yl)-[1,2,4]triazolo[1,5-a]pyridin-2-yl)cyclopropanecarboxamide], the IC50 is over 1000 nM.

For `O=C(Nc1nc2cccc(-c3cnc(N4CCOCC4)nc3)n2n1)C1CC1` [Compound 8, N-(5-(2-morpholinopyrimidin-5-yl)-[1,2,4]triazolo[1,5-a]pyridin-2-yl)cyclopropanecarboxamide], the concentration for half-maximal inhibition (IC50) is over 1000 nM.

For `O=C(Nc1nc2cccc(-c3cnc(N4CCCCC4)nc3)n2n1)C1CC1` [Compound 9, N-(5-(2-(piperidin-1-yl)pyrimidin-5-yl)-[1,2,4]triazolo[1,5-a]pyridin-2-yl)cyclopropanecarboxamide], the IC50 was over 1000 nM.

With `O=C(Nc1ccc(-c2cccc3nc(NC(=O)C4CC4)nn23)cc1)c1ccccc1F` [Compound 34, N-(4-(2-(cyclopropanecarboxamido)-[1,2,4]triazolo[1,5-a]pyridin-5-yl)phenyl)-2-fluorobenzamide], the IC50 is 101 to 500 nM.

Turning to `O=C(Nc1ccc(-c2cccc3nc(NC(=O)C4CC4)nn23)cc1)c1cnccn1` [Compound 35, N-(4-(2-(cyclopropanecarboxamido)-[1,2,4]triazolo[1,5-a]pyridin-5-yl)phenyl)pyrazine-2-carboxamide], the IC50 was in the range of 101 to 500 nM.

With `O=C(Nc1nc2cccc(-c3ccc(OCc4cccc(OC(F)(F)F)c4)cc3)n2n1)C1CC1` [Compound 38, N-(5-(4-(3-(trifluoromethoxy)benzyloxy)phenyl)-[1,2,4]triazolo[1,5-a]pyridin-2-yl)cyclopropanecarboxamide], the 50% inhibitory concentration (IC50) was in the range of 101 to 500 nM.

As to `O=C(Nc1ccc(-c2cccc3nc(NC(=O)C4CC4)nn23)cn1)c1ccccc1` [Compound 44, N-(5-(2-(cyclopropanecarboxamido)-[1,2,4]triazolo[1,5-a]pyridin-5-yl)pyridin-2-yl)benzamide], the IC50 was 501 to 1000 nM.

For `O=C(Nc1ccc(-c2cccc3nc(NC(=O)C4CC4)nn23)cc1)C1CCCCC1` [Compound 45, N-(4-(2-(cyclopropanecarboxamido)-[1,2,4]triazo[1,5-a]pyridin-5-yl)phenyl)cyclohexanecarbox-amide], the IC50 lay in the range of 101 to 500 nM.

As to `O=C(Nc1nc2cccc(-c3ccc(-c4ccccc4)nc3)n2n1)C1CC1` [Compound 47, N-(5-(6-phenylpyridin-3-yl)-[1,2,4]triazolo[1,5-a]pyridin-2-yl)cyclopropanecarboxamide], the IC50 lay within 101 to 500 nM.

On to `COc1cccc(C(=O)Nc2ccc(-c3cccc4nc(NC(=O)C5CC5)nn34)cc2)c1` [Compound 53, N-(4-(2-(cyclopropanecarboxamido)-[1,2,4]triazolo[1,5-a]pyridin-5-yl)phenyl)-3-methoxybenzamide], for which the IC50 is 101 to 500 nM.

For the molecule `O=C(Nc1ccc(-c2cccc3nc(NC(=O)C4CC4)nn23)cc1)c1ccccn1` [Compound 55, N-(4-(2-(cyclopropanecarboxamido)-[1,2,4]triazolo[1,5-a]pyridin-5-yl)phenyl)picolinamide], the IC50 was 101 to 500 nM.

With `O=C(Nc1nc2cccc(-c3ccc(N4CCNCC4)nc3)n2n1)C1CC1` [Compound 61, N-(5-(6-(piperazin-1-yl)pyridin-3-yl)-[1,2,4]triazolo[1,5-a]pyridin-2-yl)cyclopropanecarboxamide], the IC50 was over 1000 nM.

In the case of `Cc1nc(COc2ccc(-c3cccc4nc(NC(=O)C5CC5)nn34)cc2)c(C)o1` [Compound 63, N-(5-(4-((2,5-dimethyloxazol-4-yl)methoxy)phenyl)-[1,2,4]triazolo[1,5-a]pyridin-2-yl)cyclopropanecarboxamide], the IC50 fell in the range of 101 to 500 nM.

In the case of `Cc1nn(C)cc1S(=O)(=O)Nc1ccc(-c2cccc3nc(NC(=O)C4CC4)nn23)cc1` [Compound 65, N-(5-(4-(1,3-dimethyl-1H-pyrazole-4-sulfonamido)phenyl)-[1,2,4]triazolo[1,5-a]pyridin-2-yl)cyclopropanecarboxamide], the IC50 was 101 to 500 nM.

Take `O=C(Nc1nc2cccc(-c3ccc(-c4cn[nH]c4)cc3)n2n1)C1CC1` [Compound 67, N-(5-(4-(1H-pyrazol-4-yl)phenyl)-[1,2,4]triazolo[1,5-a]pyridin-2-yl)cyclopropanecarboxamide]: the IC50 lay in the range of 101 to 500 nM.

Consider `O=C(Nc1nc2cccc(-c3ccc(-c4cccnc4)nc3)n2n1)C1CC1` [Compound 68, N-(5-(2,3′-bipyridin-5-yl)-[1,2,4]triazolo[1,5-a]pyridin-2-yl)cyclopropanecarboxamide], for which the IC50 lay in the range of 101 to 500 nM.

Regarding `CCCc1cc(C(=O)Nc2ccc(-c3cccc4nc(NC(=O)C5CC5)nn34)cc2)n(C)n1` [Compound 69], the IC50 lay in the range of 101 to 500 nM.

On to `O=C(Nc1ccc(-c2cccc3nc(NC(=O)C4CC4)nn23)cc1)C1CCC1` [Compound 70, N-(4-(2-(cyclopropanecarboxamido)-[1,2,4]triazolo[1,5-a]pyridin-5-yl)phenyl)cyclobutanecarbox-amide], for which the IC50 fell in the range of 101 to 500 nM.

On to `CCOCC1CCN(C(=O)c2ccc(-c3cccc4nc(NC(=O)C5CC5)nn34)cc2)CC1` [Compound 73], for which the IC50 was in the range of 101 to 500 nM.

Turning to `O=C(NCCN1CCCC1)c1ccc(-c2cccc3nc(NC(=O)C4CC4)nn23)cc1` [Compound 80, 4-(2-(cyclopropanecarboxamido)-[1,2,4]lriazoIo[1,5-a]pyridin-5-yl)-N-(2-(pyrrolidin-l-yl)ethyl)benzamide], the IC50 was 101 to 500 nM.

With `O=C(NCCCN1CCOCC1)c1ccc(-c2cccc3nc(NC(=O)C4CC4)nn23)cc1` [Compound 81, 4-(2-(cyclopropanecarboxamido)-[1,2,4]triazolo[1,5-a]pyridin-5-yl)-N-(3-morpholinopropyl)benzamide], the IC50 lay within 101 to 500 nM.

Consider `O=C(Nc1nc2cccc(-c3ccc(C(=O)N4CCC(c5ccc(Cl)cc5)CC4)cc3)n2n1)C1CC1` [Compound 86], for which the IC50 is under 100 nM.

`O=C(Nc1nc2cccc(-c3ccc(NCCC4CCOCC4)nc3)n2n1)C1CC1` [Compound 93, N-(5-(6-(2-(tetrahydro-2H-pyran-4-yl)ethylamino)pyridin-3-yl)-[1,2,4]triazolo[1,5-a]pyridin-2-yl)cyclopropanecarboxamide]: the IC50 lay within 101 to 500 nM.

For `O=C(Nc1nc2cccc(-c3ccc(C(=O)N4CCC(CCN5CCOCC5)CC4)cc3)n2n1)C1CC1` [Compound 94, N-(5-(4-(4-(2-morpholinoethyl)piperidine-1-carbonyl)phenyl)-[l,2,4]triazolo[1,5-a]pyridin-2-yl)cyclopropanecarboxamide], the half-inhibitory concentration (IC50) was in the range of 101 to 500 nM.

As to `O=C(Nc1nc2cccc(-c3ccnc(N4CCC(CCN5CCOCC5)CC4)c3)n2n1)C1CC1` [Compound 95, N-(5-(2-(4-(2-morpholinoethyl)piperidin-1-yl)pyridin-4-yl)-[1,2,4]triazolo[1,5-a]pyridin-2-yl)cyclopropanecarboxamide], the IC50 is over 1000 nM.

Take `O=C(Nc1nc2cccc(-c3ccc(C(=O)N4CCC(N5CCOCC5)CC4)cc3)n2n1)C1CC1` [Compound 101, N-(5-(4-(4-morpholinopiperidine-1-carbonyl)phenyl)-[1,2,4]triazolo[1,5-a]pyridin-2-yl)cyclopropanecarboxamide]: the IC50 fell in the range of 101 to 500 nM.

On to `CC(C)(CN1CCOCC1)NC(=O)c1ccc(-c2cccc3nc(NC(=O)C4CC4)nn23)cc1` [Compound 102, 4-(2-(cyclopropanecarboxamido)-[1,2,4]triazolo[1,5-a]pyridin-5-yl)-N-(2-methyl-1-morpholinopropan-2-yl)benzamide], for which the IC50 is 101 to 500 nM.

On to `CN(Cc1ccccc1)C1CCN(C(=O)c2ccc(-c3cccc4nc(NC(=O)C5CC5)nn34)cc2)CC1` [Compound 103, N-(5-(4-(4-(benzyl(methyl)amino)piperidine-1-carbonyl)phenyl)-[1,2,4]triazolo[1,5-a]pyridin-2-yl)cyclopropanecarboxamide], for which the half-maximal inhibitory concentration (IC50) was over 1000 nM.

As to `COc1ccc(CCN(C)C(=O)c2ccc(-c3cccc4nc(NC(=O)C5CC5)nn34)cc2)cc1OC` [Compound 105, 4-(2-(cyclopropanecarboxamido)-[1,2,4]triazolo[1,5-a]pyridin-5-yl)-N-(3,4-dimethoxyphenethyl)-N-methylbenzamide], the IC50 is 101 to 500 nM.

As to `O=C(Nc1nc2cccc(-c3ccc(C(=O)N4CCC(Oc5cccnc5)CC4)cc3)n2n1)C1CC1` [Compound 110, N-(5-(4-(4-(pyridin-3-yloxy)piperidine-1-carbonyl)phenyl)-[1,2,4]triazolo[1,5-a]pyridin-2-yl)cyclopropanecarboxamide], the IC50 lay within 101 to 500 nM.

Consider `O=C(Nc1nc2cccc(-c3ccnc(N4CCC(CCc5ccccc5)CC4)c3)n2n1)C1CC1` [Compound 112, N-(5-(2-(4-phenethylpiperidin-1-yl)pyridin-4-yl)-[1,2,4]triazolo[1,5-a]pyridin-2-yl)cyclopropanecarboxamide], for which the IC50 was over 1000 nM.

Source of the values: patent US10206907B2, “Compounds useful for the treatment of degenerative and inflammatory diseases” (GALAPAGOS NV, priority 2008, dated 2019).
